Calls of active or inactive are those of the source. The rule behind the calls is not given here.
Legend:
MGC-803 [1] = assay: Induction of apoptosis in human MGC-803 cells assessed as early apoptotic cells at 4 uM incubated for 36 hrs by annexin V-FITC based flow cytometry analysis (reference value: 2.49 %); type: functional
[2] = target: Phosphatidylinositol 4,5-bisphosphate 3-kinase catalytic subunit beta isoform (Homo sapiens, UniProt P42338); assay: Inhibition of PI3Kbeta (unknown origin) in presence of [33P]-ATP incubated for 2 hrs by hotspot kinase assay
Sequence of Phosphatidylinositol 4,5-bisphosphate 3-kinase catalytic subunit beta isoform (P42338 whole entry, canonical isoform): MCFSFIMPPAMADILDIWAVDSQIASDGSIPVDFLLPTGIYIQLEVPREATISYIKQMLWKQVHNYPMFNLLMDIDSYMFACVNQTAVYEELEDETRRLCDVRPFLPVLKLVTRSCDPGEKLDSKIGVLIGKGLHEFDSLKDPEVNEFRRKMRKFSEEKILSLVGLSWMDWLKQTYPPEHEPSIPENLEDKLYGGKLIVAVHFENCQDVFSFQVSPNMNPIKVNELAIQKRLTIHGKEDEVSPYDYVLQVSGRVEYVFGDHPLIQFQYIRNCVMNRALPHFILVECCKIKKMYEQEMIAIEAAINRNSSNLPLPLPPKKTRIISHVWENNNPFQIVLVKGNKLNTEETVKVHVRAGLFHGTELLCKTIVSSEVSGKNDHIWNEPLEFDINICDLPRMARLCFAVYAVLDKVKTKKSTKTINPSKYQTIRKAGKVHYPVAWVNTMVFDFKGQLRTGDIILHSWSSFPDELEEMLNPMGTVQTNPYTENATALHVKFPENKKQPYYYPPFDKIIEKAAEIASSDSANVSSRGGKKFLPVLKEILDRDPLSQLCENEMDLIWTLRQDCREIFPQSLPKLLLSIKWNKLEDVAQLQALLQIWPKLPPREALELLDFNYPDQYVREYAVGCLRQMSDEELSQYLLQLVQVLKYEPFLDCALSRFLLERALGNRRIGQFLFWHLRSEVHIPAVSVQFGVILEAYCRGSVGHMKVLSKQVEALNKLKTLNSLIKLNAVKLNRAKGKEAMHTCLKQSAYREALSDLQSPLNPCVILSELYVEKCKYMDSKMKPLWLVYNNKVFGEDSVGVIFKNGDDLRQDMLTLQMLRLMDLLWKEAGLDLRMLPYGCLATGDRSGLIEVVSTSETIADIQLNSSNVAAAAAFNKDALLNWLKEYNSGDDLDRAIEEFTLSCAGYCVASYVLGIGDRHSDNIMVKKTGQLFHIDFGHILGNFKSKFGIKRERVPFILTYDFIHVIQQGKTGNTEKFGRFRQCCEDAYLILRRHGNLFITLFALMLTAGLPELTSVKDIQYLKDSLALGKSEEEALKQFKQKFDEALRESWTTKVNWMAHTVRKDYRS

[3] = AUC (0 to infinitive) in Sprague-Dawley rat at 1 mg/kg, iv measured after 24 hrs; type: ADME, organism-based; design: time 24 hrs, dose 1 mg/kg, route iv; details: in vivo
MGC-803 [4] = assay: Antimetastatic activity against human MGC-803 cells assessed as […] of E-cadherin expression in at 2 to 8 uM by Western blot analysis; type: functional, cell-based; details: dose 2-8 µM
MGC-803 [5] = assay: Inhibition of cell migration in human MGC-803 cells at 2 to 8 uM incubated for 24 hrs by crystal violet staining based transwell migration assay; type: functional; details: dose 2-8 µM
[6] = Toxicity in BALB/c mouse xenografted with human MG C-803cells assessed as effect on body weight at 30 mg/kg, po administered every day for 3 week in presence of taxol; type: organism-based; details: in vivo, 504 h, time 3 weeks
[7] = Cmax in Sprague-Dawley rat at 1 mg/kg, iv measured after 24 hrs; type: ADME, organism-based; design: time 24 hrs, dose 1 mg/kg, route iv; details: in vivo
[8] = target: Phosphatidylinositol 4,5-bisphosphate 3-kinase catalytic subunit alpha isoform (Homo sapiens, UniProt P42336); assay: Inhibition of PI3Kalpha (unknown origin) using PIP2 as substrate in presence of ATP measured after 1 hr by ADP-Glo assay
Sequence of Phosphatidylinositol 4,5-bisphosphate 3-kinase catalytic subunit alpha isoform (P42336 whole entry, canonical isoform): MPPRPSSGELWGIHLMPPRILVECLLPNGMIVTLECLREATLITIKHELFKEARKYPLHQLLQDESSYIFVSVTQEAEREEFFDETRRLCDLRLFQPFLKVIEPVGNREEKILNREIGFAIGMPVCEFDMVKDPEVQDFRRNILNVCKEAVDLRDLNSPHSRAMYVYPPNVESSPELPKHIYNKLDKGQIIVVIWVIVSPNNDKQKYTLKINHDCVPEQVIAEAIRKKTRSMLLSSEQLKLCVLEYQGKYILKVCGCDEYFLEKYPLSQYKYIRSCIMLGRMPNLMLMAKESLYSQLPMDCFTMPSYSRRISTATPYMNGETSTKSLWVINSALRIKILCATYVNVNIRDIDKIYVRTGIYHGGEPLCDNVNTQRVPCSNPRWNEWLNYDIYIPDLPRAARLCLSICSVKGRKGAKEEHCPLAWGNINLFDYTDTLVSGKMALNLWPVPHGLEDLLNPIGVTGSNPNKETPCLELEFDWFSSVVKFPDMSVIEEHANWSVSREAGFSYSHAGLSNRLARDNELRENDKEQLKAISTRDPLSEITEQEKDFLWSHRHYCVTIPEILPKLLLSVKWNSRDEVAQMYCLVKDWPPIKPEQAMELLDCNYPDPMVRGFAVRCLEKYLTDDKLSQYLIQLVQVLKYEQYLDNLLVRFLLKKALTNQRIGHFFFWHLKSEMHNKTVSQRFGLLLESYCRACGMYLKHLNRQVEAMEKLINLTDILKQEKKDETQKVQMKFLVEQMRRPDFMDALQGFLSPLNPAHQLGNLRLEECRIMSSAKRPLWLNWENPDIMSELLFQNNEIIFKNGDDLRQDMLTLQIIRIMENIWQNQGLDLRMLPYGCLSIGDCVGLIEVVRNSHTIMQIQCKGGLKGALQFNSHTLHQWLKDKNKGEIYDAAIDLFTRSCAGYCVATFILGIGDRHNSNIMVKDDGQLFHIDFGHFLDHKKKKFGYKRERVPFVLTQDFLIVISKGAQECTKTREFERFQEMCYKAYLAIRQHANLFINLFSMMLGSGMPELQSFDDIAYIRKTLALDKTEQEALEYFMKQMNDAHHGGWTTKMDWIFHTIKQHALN

[9] = target: T1, Phosphatidylinositol 4,5-bisphosphate 3-kinase catalytic subunit delta isoform (Homo sapiens, UniProt O00329); assay: Inhibition of PI3Kdelta (unknown origin) in presence of [33P]-ATP incubated for 2 hrs by hotspot kinase assay
T1 sequence (O00329 whole entry): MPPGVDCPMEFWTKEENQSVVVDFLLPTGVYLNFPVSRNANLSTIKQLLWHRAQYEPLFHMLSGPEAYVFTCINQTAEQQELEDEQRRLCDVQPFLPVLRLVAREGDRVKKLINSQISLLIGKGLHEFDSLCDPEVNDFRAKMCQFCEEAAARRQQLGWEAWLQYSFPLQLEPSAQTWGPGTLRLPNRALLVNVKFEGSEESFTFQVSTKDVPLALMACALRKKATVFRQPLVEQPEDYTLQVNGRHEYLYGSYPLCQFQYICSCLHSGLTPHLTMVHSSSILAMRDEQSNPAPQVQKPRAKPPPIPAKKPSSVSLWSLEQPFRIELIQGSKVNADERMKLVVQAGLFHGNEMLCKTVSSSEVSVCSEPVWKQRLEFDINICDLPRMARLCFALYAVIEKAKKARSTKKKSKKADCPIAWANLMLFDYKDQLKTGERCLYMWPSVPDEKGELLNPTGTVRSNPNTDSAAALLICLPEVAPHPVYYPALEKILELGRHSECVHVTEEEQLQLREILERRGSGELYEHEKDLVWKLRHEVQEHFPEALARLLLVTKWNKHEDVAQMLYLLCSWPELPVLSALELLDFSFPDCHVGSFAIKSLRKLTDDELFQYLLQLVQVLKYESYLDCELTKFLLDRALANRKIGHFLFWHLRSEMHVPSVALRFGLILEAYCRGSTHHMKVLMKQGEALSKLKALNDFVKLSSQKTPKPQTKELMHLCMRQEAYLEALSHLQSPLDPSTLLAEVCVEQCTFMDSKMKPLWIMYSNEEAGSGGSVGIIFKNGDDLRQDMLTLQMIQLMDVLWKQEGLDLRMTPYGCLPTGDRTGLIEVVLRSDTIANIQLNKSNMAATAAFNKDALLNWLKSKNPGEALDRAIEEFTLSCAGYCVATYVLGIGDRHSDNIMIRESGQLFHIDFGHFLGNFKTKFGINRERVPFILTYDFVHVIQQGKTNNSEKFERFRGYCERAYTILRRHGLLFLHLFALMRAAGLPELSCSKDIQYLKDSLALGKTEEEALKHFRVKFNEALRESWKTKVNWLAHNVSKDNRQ

MGC-803 [10] = assay: Antitumor activity against human MGC-803 cells xenografted in BALB/c nude mouse assessed as tumor growth inhibition at 10 mg/kg, ip administered every day for 3 weeks; type: functional; details: MGC-803, 504 h, read-out: TGI
[11] = AUC (0 to t) in Sprague-Dawley rat at 1 mg/kg, iv measured after 24 hrs; type: ADME, organism-based; design: time 24 hrs, dose 1 mg/kg, route iv; details: in vivo
MGC-803 [12] = assay: Induction of apoptosis in human MGC-803 cells assessed as necrotic cells at 4 uM incubated for 36 hrs by annexin V-FITC based flow cytometry analysis (reference value: […]); type: functional
[13] = Cmax in Sprague-Dawley rat at 10 mg/kg, po measured after 24 hrs; type: ADME, organism-based; design: time 24 hrs, dose 10 mg/kg, route po; details: in vivo
Homo sapiens = species on record: Homo sapiens; assay: Selectivity index, ratio of IC50 for inhibition of PI3Kdelta (unknown origin) to IC50 for inhibition of PI3Kalpha (unknown origin)
[14] = target: Phosphatidylinositol 4,5-bisphosphate 3-kinase catalytic subunit gamma isoform (Homo sapiens, UniProt P48736)
Sequence of Phosphatidylinositol 4,5-bisphosphate 3-kinase catalytic subunit gamma isoform (P48736 whole entry, canonical isoform): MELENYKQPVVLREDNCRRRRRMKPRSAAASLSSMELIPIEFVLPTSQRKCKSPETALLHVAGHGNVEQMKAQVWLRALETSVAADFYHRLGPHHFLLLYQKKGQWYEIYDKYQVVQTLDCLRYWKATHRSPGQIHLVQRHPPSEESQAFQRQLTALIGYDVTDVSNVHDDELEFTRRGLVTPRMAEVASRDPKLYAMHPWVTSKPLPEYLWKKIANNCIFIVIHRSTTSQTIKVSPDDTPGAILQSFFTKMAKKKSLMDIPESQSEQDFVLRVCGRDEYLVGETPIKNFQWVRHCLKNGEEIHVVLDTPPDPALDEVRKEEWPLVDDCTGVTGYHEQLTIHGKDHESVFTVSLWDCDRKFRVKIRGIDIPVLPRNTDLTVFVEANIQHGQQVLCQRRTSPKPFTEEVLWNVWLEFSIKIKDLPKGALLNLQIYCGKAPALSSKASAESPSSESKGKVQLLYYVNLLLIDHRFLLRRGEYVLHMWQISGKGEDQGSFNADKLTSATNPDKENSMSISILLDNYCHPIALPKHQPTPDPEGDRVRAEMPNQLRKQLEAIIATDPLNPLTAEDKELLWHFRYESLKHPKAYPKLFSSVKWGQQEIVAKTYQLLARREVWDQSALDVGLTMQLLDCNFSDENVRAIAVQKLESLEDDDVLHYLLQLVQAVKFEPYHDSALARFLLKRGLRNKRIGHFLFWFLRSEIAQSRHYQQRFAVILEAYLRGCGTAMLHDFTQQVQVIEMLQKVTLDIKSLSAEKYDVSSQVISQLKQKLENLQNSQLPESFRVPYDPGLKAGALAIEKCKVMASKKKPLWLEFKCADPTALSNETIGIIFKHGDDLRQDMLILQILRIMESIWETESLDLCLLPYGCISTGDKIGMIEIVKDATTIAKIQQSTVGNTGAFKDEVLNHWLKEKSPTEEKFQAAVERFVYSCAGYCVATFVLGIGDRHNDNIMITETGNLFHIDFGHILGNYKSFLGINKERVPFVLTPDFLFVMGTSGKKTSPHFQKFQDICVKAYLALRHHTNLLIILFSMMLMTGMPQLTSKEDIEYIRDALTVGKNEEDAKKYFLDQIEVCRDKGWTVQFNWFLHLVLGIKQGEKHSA

[15] = Half life in Sprague-Dawley rat at 10 mg/kg, po measured after 24 hrs; type: ADME, organism-based; details: in vivo
MGC-803 [16] = assay: Induction of apoptosis in human MGC-803 cells assessed as viable cells at 4 uM incubated for 36 hrs by annexin V-FITC based flow cytometry analysis (reference value: 94.51 %); type: functional; details: read-out: Activity
MGC-803 [17] = assay: Antitumor activity against human MGC-803 cells xenografted in BALB/c nude mouse assessed as reduction in tumor volume at 30 mg/kg, po administered every day for 3 weeks by vernier caliper method; type: functional, organism-based
MGC-803 [18] = assay: Induction of apoptosis in human MGC-803 cells assessed as early apoptotic cells at 2 uM incubated for 36 hrs by annexin V-FITC based flow cytometry analysis (reference value: 2.49 %); type: functional
MGC-803 [19] = assay: Inhibition of PI3K signalling pathway in human MGC-803 cells assessed as reduction in pAKT level at 2 to 8 uM by Western blotting analysis; type: cell-based; details: dose 2-8 µM
[20] = Oral bioavailability in Sprague-Dawley rat at 10 mg/kg measured after 24 hrs; type: ADME, organism-based; details: in vivo
MGC-803 [21] = assay: Antitumor activity against human MGC-803 cells xenografted in BALB/c nude mouse assessed as reduction in tumor volume at 30 mg/kg, po administered every day for 3 weeks in presence of taxol by vernier caliper method; type: functional, organism-based
[22] = Clearance in Sprague-Dawley rat at 1 mg/kg, iv measured after 24 hrs; type: ADME, organism-based; details: in vivo
MGC-803 [23] = assay: Inhibition of PI3K signalling pathway in human MGC-803 cells assessed as reduction in P70S6K phosphorylation at 2 to 8 uM by Western blotting analysis; type: cell-based; details: dose 2-8 µM
MGC-803 [24] = assay: Antiproliferative activity against human MGC-803 cells assessed as inhibition of cell growth incubated for 72 hrs by CCK8 assay; type: functional, cell-based; details: MGC-803, 72 h
RPMI-8226 = assay: Antiproliferative activity against human RPMI-8226 cells assessed as inhibition of cell growth incubated for 72 hrs by CCK8 assay; type: functional, cell-based; details: RPMI-8226, 72 h

IC50 [2]: 146 nM
AUC(0-inf) [3]: 2920 ng·h/mL
Cmax [7]: 455 ng/mL
IC50 [8]: 4.4 nM
IC50 [9]: 153 nM
AUC(0-t) at 24 h [11]: 2240 ng·h/mL
Cmax [13]: 2260 ng/mL
Ratio IC50 (Homo sapiens): 34
IC50 [14]: 128 nM
half-life [15]: > 10 h
bioavailability [20]: 130%
clearance [22]: 5.72 mL/min/kg
IC50 (MGC-803 [24]): 430 nM
IC50 (RPMI-8226): 430 nM
Compound: Nc1nc2cc(-c3nc(N4CCOCC4)nc(N4CCOCC4)n3)ccc2o1
Activity (MGC-803 [1]): 31.31%
inhibition (MGC-803 [4]): Active
inhibition (MGC-803 [5]): Active
Activity [6]: Non-Toxic
inhibition in vivo at 10 mg/kg (MGC-803 [10]): 41.5%
Activity (MGC-803 [12]): 1.11%
viability at 4 µM (MGC-803 [16]): 62.6%
Activity (MGC-803 [17]): Active
Activity (MGC-803 [18]): 7.52%
inhibition (MGC-803 [19]): Active
Activity (MGC-803 [21]): Active
inhibition (MGC-803 [23]): Active

Source: ChEMBL document CHEMBL5143740, “Discovery of Novel Phosphoinositide-3-Kinase α Inhibitors with High Selectivity, Excellent Bioavailability, and Long-Acting Efficacy for Gastric Cancer” (J Med Chem, 2022)
